Assay results published in US20180214449A1, “CANCER THERAPY USING JAK INHIBITOR IN COMBINATION WITH MAPK INHIBITORS” (UBRX, INC., priority 2015, published 2018).

Key:
[1] = system: A375, Lu1205, and several UACC melanoma cell lines resistant to BRAF inhibitors or BRAF and MEK inhibitors; experiment: Example 2: growth in soft agar of resistant melanoma cells; format: cell-based, human; conditions: two weeks in soft agar, 0-10 μM
Description: The cells are grown for two weeks in soft agar, in the presence of 0-10 μM of ruxolitinib (JAK1 inhibitor), dabrafenib (BRAF inhibitor), trametinib (MEK inhibitor) as single agents or in combination therapies, using a constant volume of inhibitor for all the conditions.

melanoma patients = conditions: clinical trial data; cited from earlier work
UACC1308 = experiment: IC50 to B-Raf inhibitors in melanoma cell line; format: cell-based; conditions: Homo sapiens
UACC3291 = experiment: IC50 to B-Raf inhibitors in melanoma cell line; format: cell-based; conditions: Homo sapiens
UACC91 = experiment: IC50 to B-Raf inhibitors in melanoma cell line; format: cell-based; conditions: Homo sapiens
Description: (§1) Melanoma cells A375 and Lu1205 were cultured in Dulbecco's modified Eagle's medium (DMEM) supplemented with 10% fetal bovine serum (FBS), and penicillin-streptomycin. The melanoma UACC cell lines (UACC91, UACC502, UACC612, UACC647, and UACC1113) were maintained in Rosewell Park Memorial Institute Medium (RPMI1640) supplemented with 10% FBS and penicillin-streptomycin. In order to develop resistance to B-Raf inhibitor PLX-4032, the cells were grown with increasing concentrations of the inhibitor at each passage and eventually maintained in appropriate media containing either 5 μM (for A375 and Lu1205 cells) or 1 μM (for UACC cells) PLX-4032.
(§2) Melanoma cell lines UACC91, UACC502, UACC612, UACC647, and UACC1113 were treated with B-Raf inhibitors PLX-4032 or PLX-4720, and the IC50 values were correlated with RNF125 expression levels. The RNF125 expression was determined using RNA-Sequencing (RNA-Seq) methods and expressed in fragments per kilobase per million reads unit (FPKM).

UACC647 = experiment: IC50 to B-Raf inhibitors in melanoma cell line; format: cell-based; conditions: Homo sapiens
Description: as §1, §2

UACC612 = experiment: IC50 to B-Raf inhibitors in melanoma cell line; format: cell-based; conditions: Homo sapiens
Description: as §1, §2

UACC502 = experiment: IC50 to B-Raf inhibitors in melanoma cell line; format: cell-based; conditions: Homo sapiens
Description: as §1, §2

UACC257 = experiment: IC50 to B-Raf inhibitors in melanoma cell line; format: cell-based; conditions: Homo sapiens, UACC-257
UACC903 = experiment: IC50 to B-Raf inhibitors in melanoma cell line; format: cell-based; conditions: Homo sapiens, UACC-903
UACC2641 = experiment: IC50 to B-Raf inhibitors in melanoma cell line; format: cell-based; conditions: Homo sapiens
UACC558 = experiment: IC50 to B-Raf inhibitors in melanoma cell line; format: cell-based; conditions: Homo sapiens
JAK1 = conditions: cited from earlier work
JAK2 = JAK2 (Homo sapiens, UniProt O60674); conditions: cited from earlier work
Sequence of JAK2 (O60674 whole entry, species assumed): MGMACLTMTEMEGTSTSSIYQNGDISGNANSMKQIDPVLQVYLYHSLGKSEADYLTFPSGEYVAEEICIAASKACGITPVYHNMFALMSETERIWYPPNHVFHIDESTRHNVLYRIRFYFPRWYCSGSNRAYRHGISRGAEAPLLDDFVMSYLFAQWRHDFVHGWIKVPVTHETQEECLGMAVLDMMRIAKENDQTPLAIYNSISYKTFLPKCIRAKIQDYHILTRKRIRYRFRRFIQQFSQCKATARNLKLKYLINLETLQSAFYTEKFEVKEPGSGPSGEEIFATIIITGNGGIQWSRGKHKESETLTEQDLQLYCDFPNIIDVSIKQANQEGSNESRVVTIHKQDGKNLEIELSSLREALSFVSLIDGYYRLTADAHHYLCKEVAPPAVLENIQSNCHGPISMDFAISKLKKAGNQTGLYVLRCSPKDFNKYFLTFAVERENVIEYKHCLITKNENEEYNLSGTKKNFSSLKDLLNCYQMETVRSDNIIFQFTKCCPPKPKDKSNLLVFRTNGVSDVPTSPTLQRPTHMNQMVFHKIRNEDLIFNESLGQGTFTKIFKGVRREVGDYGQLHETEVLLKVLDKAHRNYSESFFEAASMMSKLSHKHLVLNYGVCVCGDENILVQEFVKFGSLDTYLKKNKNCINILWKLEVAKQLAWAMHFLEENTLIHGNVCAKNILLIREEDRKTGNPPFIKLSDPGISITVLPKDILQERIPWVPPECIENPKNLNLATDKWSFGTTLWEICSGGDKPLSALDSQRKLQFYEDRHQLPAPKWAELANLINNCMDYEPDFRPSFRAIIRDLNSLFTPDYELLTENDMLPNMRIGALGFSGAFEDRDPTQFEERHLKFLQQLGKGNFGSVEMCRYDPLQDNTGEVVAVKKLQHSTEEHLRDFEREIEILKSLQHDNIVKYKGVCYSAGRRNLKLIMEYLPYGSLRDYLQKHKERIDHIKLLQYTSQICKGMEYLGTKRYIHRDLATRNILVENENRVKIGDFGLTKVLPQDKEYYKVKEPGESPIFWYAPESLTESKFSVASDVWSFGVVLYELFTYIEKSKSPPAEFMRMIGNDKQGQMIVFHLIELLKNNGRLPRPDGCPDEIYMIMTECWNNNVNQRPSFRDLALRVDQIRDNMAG

[2] = system: B-Raf inhibitor resistant cells A375 or Lu1205R; experiment: Growth in soft agar of B-Raf inhibitor resistant cells; format: cell-based, human; conditions: two weeks in soft agar
Description: Melanoma cells A375 and Lu1205 were cultured in Dulbecco's modified Eagle's medium (DMEM) supplemented with 10% fetal bovine serum (FBS), and penicillin-streptomycin. The melanoma UACC cell lines (UACC91, UACC502, UACC612, UACC647, and UACC1113) were maintained in Rosewell Park Memorial Institute Medium (RPMI1640) supplemented with 10% FBS and penicillin-streptomycin.

[3] = system: mouse T-cell lymphoma cells; conditions: read-out: IC50, IL-2 and IL-4-dependent proliferation; cited from earlier work
[4] = system: other protein tyrosine kinases; conditions: read-out: IC50s for other protein tyrosine kinases; units printed within the range (nM to μM); cited from earlier work

Structure (SMILES)	IC50 (UACC1308)	IC50 (UACC3291)	IC50 (UACC91)	IC50 (UACC647)	IC50 (UACC612)	IC50 (UACC502)	IC50 (UACC257)	IC50 (UACC903)	IC50 (UACC2641)	IC50 (UACC558)	growth in soft agar [2]	other results
CC(C)(C)c1nc(-c2cccc(NS(=O)(=O)c3c(F)cccc3F)c2F)c(-c2ccnc(N)n2)s1 [dabrafenib]	–	–	–	–	–	–	–	–	–	–	–	growth of the melanoma cells in soft agar [1]: does not block the growth; time until resistance occurs (melanoma patients): 6 to 7 months
CCCS(=O)(=O)Nc1ccc(F)c(C(=O)c2c[nH]c3ncc(Cl)cc23)c1F [PLX-4702]	90 nM	90 nM	532 nM	6720 nM	5480 nM	780 nM	140 nM	250 nM	4590 nM	420 nM	–	–
Cc1cc(Nc2nc(N[C@@H](C)c3ncc(F)cn3)ncc2Cl)n[nH]1 [AZD1480]	–	–	–	–	–	–	–	–	–	–	did not inhibit growth	IC50 (JAK1): 1.3 nM; IC50 (JAK2): 0.26 nM
COc1cc2ncnc(Nc3ccc(F)c(Cl)c3)c2cc1OCCCN1CCOCC1 [Gefitinib]	–	–	–	–	–	–	–	–	–	–	did not inhibit growth	–
CC(C)(C)c1nc2c3cc[nH]c(=O)c3c3cc(F)ccc3c2[nH]1 [Pyridone 6]	–	–	–	–	–	–	–	–	–	–	–	IC50 [3]: 50 to 100 nM; IC50 [4]: ≥ 130 nM
CCCS(=O)(=O)Nc1ccc(F)c(C(=O)c2c[nH]c3ncc(-c4ccc(Cl)cc4)cc23)c1F [PLX-4032, vemurafenib]	60 nM	60 nM	301 nM	3370 nM	3780 nM	550 nM	150 nM	250 nM	5880 nM	690 nM	–	–
